Values of other authors, collected in patent publication US20130129668A1, “Diagnosis and treatment of arthritis using epigenetics” (The Regents of the University of California, priority 2011, published 2013).

Assays:
FLS = FLS cultured in the presence of 5-azaC for 3 months

For Nc1ncn([C@H]2C[C@H](O)[C@@H](CO)O2)c(=O)n1 [5-azaC, 5-aza-2′-deoxycytidine], the autoreactivity (T cells) is listed as “enhances autoreactivity”, the “expression of T cell genes (IFNα, IL-4, CD70, LFA-1)” value (T cells) is listed as “affects expression of many T cell genes” and the “expression of genes implicated in RA” value (FLS) is listed as “increased expression of several genes”.
